# From patent publication US12503719B2, “Metabolomic characterization of microorganisms” (priority 2019, dated 2025)
# Tests used:
# E. faecalis = details: published CLSI MIC used as test concentration; cited from earlier work
# [1] = published CLSI MIC used as test concentration; species not given; cited from earlier work
# E. coli [2] = assay: MAST: succinate production after 4 h incubation with antimicrobial; format: cell-based, Escherichia coli; details: AMP and SXT resistant E. coli strain, antibiotics at MIC
# From the text: All chemicals were obtained from Sigma-Aldrich (St. Louis, Mo. USA), VWR (Radnor, Pa. USA), or Fisher Scientific (Waltham, Mass. USA) unless otherwise specified. Clinical isolates used in this study were obtained from bloodstream infected patients. All strains were first identified and tested for antibiotic susceptibility using a clinical laboratory testing pipeline (plating on selective medium for single colony isolation, Gram staining, MALDI-TOF-MS species identification, and sub-culturing for purity and inoculation onto VITEK 2 (bioMerieux) antimicrobial susceptibility panels), and subsequently frozen as cryostocks. With the exception of S. pneumoniae, all strains were routinely grown in Mueller Hinton medium (BD Difco, Mississauga, ON, Canada). […] Supernatant was then diluted 1:10 with 50% LC-MS grade methanol and analyzed using UHPLC-MS. […]
# To assess MAST as a potential clinical tool, three patient isolates for each target pathogen (2 each for S. aureus and P. aeruginosa) were analyzed. […] Both bactericidal (penicillins, cephalosporins, carbapenems, glycopeptides, aminoglycosides and fluoroquinolones) and bacteriostatic (macrolides, tetracyclines, and trimethoprim-sulfamethoxazole) antibiotic classes were evaluated.
# C. albicans = details: published CLSI MIC used as test concentration; antifungals tested for C. albicans; cited from earlier work
# S. pneumoniae = details: published CLSI MIC used as test concentration; cited from earlier work
# S. aureus = details: published CLSI MIC used as test concentration; cited from earlier work
# K. pneumoniae = details: published CLSI MIC used as test concentration; cited from earlier work
# E. coli [3] = details: published CLSI MIC used as test concentration; cited from earlier work
# KP = assay: MAST: hypoxanthine production after 4 h incubation with antimicrobial; format: cell-based, Klebsiella pneumoniae
# From the text: All chemicals were obtained from Sigma-Aldrich (St. Louis, Mo. USA), VWR (Radnor, Pa. USA), or Fisher Scientific (Waltham, Mass. USA) unless otherwise specified. Clinical isolates used in this study were obtained from bloodstream infected patients. All strains were first identified and tested for antibiotic susceptibility using a clinical laboratory testing pipeline (plating on selective medium for single colony isolation, Gram staining, MALDI-TOF-MS species identification, and sub-culturing for purity and inoculation onto VITEK 2 (bioMerieux) antimicrobial susceptibility panels), and subsequently frozen as cryostocks. With the exception of S. pneumoniae, all strains were routinely grown in Mueller Hinton medium (BD Difco, Mississauga, ON, Canada). S. pneumoniae isolates were first revived on trypticase soy agar plates containing sheep blood (BD BBL, Mississauga, ON, Canada) and then sub-cultured into Mueller Hinton medium supplemented with catalase (1000 U/mL). For biomarker discovery and validation of biomarkers using MPAs, exponential phase cultures were used to seed 96 well culture plates (Corning, N.Y., N.Y. USA) containing Mueller Hinton medium with 10% donated human blood to a 0.5 McFarland (OD600˜0.07 or ˜1.5×10^8 CFU/mL). […] Supernatant was then diluted 1:10 with 50% LC-MS grade methanol and analyzed using UHPLC-MS. […]
# P. aeruginosa = details: published CLSI MIC used as test concentration; cited from earlier work
compound,measurement,setting,value
gentamicin,minimum inhibitory concentrations,E. faecalis,500 µg/mL
same,minimum inhibitory concentrations,[1],4 µg/mL
penicillin,minimum inhibitory concentrations,[1],0.06 µg/mL
"Cc1onc(-c2ccccc2)c1C(=O)N[C@@H]1C(=O)N2[C@@H]1SC(C)(C)[C@@H]2C(=O)O [OXA, oxacillin]",minimum inhibitory concentrations,[1],2 µg/mL
"CC1(C)S[C@@H]2[C@H](NC(=O)[C@H](N)c3ccccc3)C(=O)N2[C@H]1C(=O)O [AMP, ampicillin]",succinate production in presence of antibiotic versus absence of antibiotics,E. coli [2],comparable
same,minimum inhibitory concentrations,[1],8 µg/mL
"C[C@@H]1[C@H](O)[C@@H](C)/C=C/C=C/C=C/C=C/C=C/C=C/C=C/[C@H](O[C@@H]2O[C@H](C)[C@@H](O)[C@H](N)[C@@H]2O)C[C@@H]2O[C@](O)(C[C@@H](O)C[C@@H](O)[C@H](O)CC[C@@H](O)C[C@@H](O)CC(=O)O[C@H]1C)C[C@H](O)[C@H]2C(=O)O [AMB, amphotericin B]",minimum inhibitory concentrations,C. albicans,2 µg/mL
"CC(C)(O/N=C(\C(=O)N[C@@H]1C(=O)N2C(C(=O)[O-])=C(C[n+]3ccccc3)CS[C@H]12)c1csc(N)n1)C(=O)O [CAZ, ceftazidime]",minimum inhibitory concentrations,[1],8 µg/mL
"CN[C@H](CC(C)C)C(=O)N[C@H]1C(=O)N[C@@H](CC(N)=O)C(=O)N[C@H]2C(=O)N[C@H]3C(=O)N[C@H](C(=O)N[C@H](C(=O)O)c4cc(O)cc(O)c4-c4cc3ccc4O)[C@H](O)c3ccc(c(Cl)c3)Oc3cc2cc(c3O[C@@H]2O[C@H](CO)[C@@H](O)[C@H](O)[C@H]2O[C@H]2C[C@](C)(N)[C@H](O)[C@H](C)O2)Oc2ccc(cc2Cl)[C@H]1O [VAN, vancomycin]",minimum inhibitory concentrations,S. pneumoniae,1 µg/mL
same,minimum inhibitory concentrations,E. faecalis,4 µg/mL
same,minimum inhibitory concentrations,S. aureus,2 µg/mL
"OC(Cn1cncn1)(Cn1cncn1)c1ccc(F)cc1F [FLC, fluconozole]",minimum inhibitory concentrations,C. albicans,2 µg/mL
"CO/N=C(\C(=O)N[C@@H]1C(=O)N2C(C(=O)O)=C(CSc3nc(=O)c(=O)[nH]n3C)CS[C@H]12)c1csc(N)n1 [CRO, Ceftriaxone]",minimum inhibitory concentrations,S. pneumoniae,0.5 µg/mL
same,minimum inhibitory concentrations,K. pneumoniae,1 µg/mL
same,minimum inhibitory concentrations,E. coli [3],1 µg/mL
"Nc1nc(=O)[nH]cc1F [5FC, 5-flucytosine]",minimum inhibitory concentrations,C. albicans,0.5 µg/mL
"Cc1nnc(SCC2=C(C(=O)O)N3C(=O)[C@@H](NC(=O)Cn4cnnn4)[C@H]3SC2)s1 [CFX, cefazolin]",minimum inhibitory concentrations,[1],4 µg/mL
"C[C@@H](O)[C@H]1C(=O)N2C(C(=O)O)=C(S[C@@H]3CN[C@H](C(=O)N(C)C)C3)[C@H](C)[C@H]12 [MEM, meropenem]",hypoxanthine production,"KP; drug sensitive strains, range of meropenem concentrations",incremental reduction in hypoxanthine production proportional to meropenem concentrations
same,hypoxanthine production,"KP; resistant strains, clinically-relevant antibiotic concentrations",remain unaffected
same,minimum inhibitory concentrations,S. pneumoniae,0.25 µg/mL
same,minimum inhibitory concentrations,K. pneumoniae,1 µg/mL
same,minimum inhibitory concentrations,E. coli [3],1 µg/mL
same,minimum inhibitory concentrations,P. aeruginosa,2 µg/mL
"CC[C@H]1OC(=O)[C@H](C)[C@@H](O[C@H]2C[C@@](C)(OC)[C@@H](O)[C@H](C)O2)[C@H](C)[C@@H](O[C@@H]2O[C@H](C)C[C@H](N(C)C)[C@H]2O)[C@](C)(O)C[C@@H](C)C(=O)[C@H](C)[C@@H](O)[C@]1(C)O [ERY, erythromycin]",minimum inhibitory concentrations,S. pneumoniae,0.25 µg/mL
same,minimum inhibitory concentrations,S. aureus,0.5 µg/mL
